The supplement of paper PMC10307832

Experiments:
Assay in all cases: relative viability (nuclei count vs DMSO), 5 days (fraction); higher = more cells survive
[1] = tested on: EPLC-272H
Summary of the method: (§1)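 Lung cancer cell lines were pin-tool dosed in 1536-well plates on the day after seeding, with either a lone drug or a fixed anchor-drug dose plus five library-drug doses (not always all listed) in √10 steps. Nuclei were counted on 4× images after 5 days. Relative viability is the ratio of treated-well to vehicle-well nuclei counts, with each value a median of duplicate plates.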

[2] = tested on: HCC-827
Summary of the method: as §1

[3] = tested on: HOP-62
Summary of the method: as §1

[4] = tested on: LCLC-103H
Summary of the method: as §1

[5] = tested on: LOU-NH91
Summary of the method: as §1

[6] = tested on: LXF-289
Summary of the method: as §1

[7] = tested on: NCI-H1395
Summary of the method: as §1

[8] = tested on: NCI-H1651
Summary of the method: as §1

[9] = tested on: NCI-H1755
Summary of the method: as §1

[10] = tested on: NCI-H1793
Summary of the method: as §1

[11] = tested on: NCI-H2126
Summary of the method: as §1

[12] = tested on: NCI-H2228
Summary of the method: as §1

[13] = tested on: NCI-H2347
Summary of the method: as §1

[14] = tested on: NCI-H23
Summary of the method: as §1

[15] = tested on: NCI-H322M
Summary of the method: as §1

[16] = tested on: NCI-H358
Summary of the method: as §1

[17] = tested on: NCI-H441
Summary of the method: as §1

[18] = tested on: NCI-H596
Summary of the method: as §1

[19] = tested on: NCI-H647
Summary of the method: as §1

[20] = tested on: NCI-H650
Summary of the method: as §1

[21] = tested on: PC-3 [JPC-3]
Summary of the method: as §1

[22] = tested on: RERF-LC-KJ
Summary of the method: as §1

## Nc1cccc2c1CN(C1CCC(=O)NC1=O)C2=O (stereo not given) [Lenalidomide] + C[C@]1(O)C[C@@H](c2nc(-c3ccc4ccc(-c5ccccc5)nc4c3)c3c(N)nccn32)C1 [Linsitinib] (partner 1 µM)
[1]; first compound 0.253 µM
  relative viability: 1.24
[1]; first compound 2.53 µM
  relative viability: 1.11
[1]; first compound 8 µM
  relative viability: 0.843
[2]; first compound 0.253 µM
  relative viability: 0.939
[2]; first compound 0.8 µM
  relative viability: 0.944
[2]; first compound 2.53 µM
  relative viability: 0.995
[2]; first compound 8 µM
  relative viability: 1.07
[3]; first compound 0.253 µM
  relative viability: 0.89
[3]; first compound 0.8 µM
  relative viability: 0.969
[3]; first compound 2.53 µM
  relative viability: 0.837
[3]; first compound 8 µM
  relative viability: 0.918
[4]; first compound 0.253 µM
  relative viability: 1.11
[4]; first compound 0.8 µM
  relative viability: 1.09
[4]; first compound 2.53 µM
  relative viability: 1.05
[4]; first compound 8 µM
  relative viability: 0.86
[5]; first compound 0.253 µM
  relative viability: 0.912
[5]; first compound 0.8 µM
  relative viability: 0.977
[5]; first compound 2.53 µM
  relative viability: 0.922
[5]; first compound 8 µM
  relative viability: 0.847
[6]; first compound 0.253 µM
  relative viability: 0.961
[6]; first compound 0.8 µM
  relative viability: 0.994
[6]; first compound 2.53 µM
  relative viability: 1.01
[6]; first compound 8 µM
  relative viability: 1.03
[7]; first compound 0.253 µM
  relative viability: 0.968
[7]; first compound 2.53 µM
  relative viability: 1.23
[7]; first compound 8 µM
  relative viability: 1.03
[8]; first compound 0.253 µM
  relative viability: 0.995
[8]; first compound 0.8 µM
  relative viability: 0.968
[8]; first compound 2.53 µM
  relative viability: 1.18
[8]; first compound 8 µM
  relative viability: 0.973
[9]; first compound 0.253 µM
  relative viability: 0.968
[9]; first compound 0.8 µM
  relative viability: 1.01
[9]; first compound 2.53 µM
  relative viability: 0.983
[9]; first compound 8 µM
  relative viability: 0.897
[10]; first compound 0.253 µM
  relative viability: 1.02
[10]; first compound 0.8 µM
  relative viability: 0.728
[10]; first compound 2.53 µM
  relative viability: 1.13
[10]; first compound 8 µM
  relative viability: 0.512
[11]; first compound 0.253 µM
  relative viability: 0.692
[11]; first compound 0.8 µM
  relative viability: 0.681
[11]; first compound 2.53 µM
  relative viability: 0.702
[11]; first compound 8 µM
  relative viability: 0.486
[12]; first compound 0.253 µM
  relative viability: 0.598
[12]; first compound 0.8 µM
  relative viability: 0.774
[12]; first compound 2.53 µM
  relative viability: 0.802
[12]; first compound 8 µM
  relative viability: 0.639
[13]; first compound 0.253 µM
  relative viability: 0.952
[13]; first compound 0.8 µM
  relative viability: 1.03
[13]; first compound 2.53 µM
  relative viability: 1
[13]; first compound 8 µM
  relative viability: 0.808
[14]; first compound 0.253 µM
  relative viability: 0.452
[14]; first compound 0.8 µM
  relative viability: 0.493
[14]; first compound 2.53 µM
  relative viability: 0.688
[14]; first compound 8 µM
  relative viability: 0.45
[15]; first compound 0.253 µM
  relative viability: 0.912
[15]; first compound 0.8 µM
  relative viability: 1.06
[15]; first compound 2.53 µM
  relative viability: 0.856
[15]; first compound 8 µM
  relative viability: 0.708
[16]; first compound 0.253 µM
  relative viability: 0.751
[16]; first compound 0.8 µM
  relative viability: 0.752
[16]; first compound 2.53 µM
  relative viability: 0.773
[16]; first compound 8 µM
  relative viability: 0.703
[17]; first compound 0.253 µM
  relative viability: 0.547
[17]; first compound 0.8 µM
  relative viability: 0.345
[17]; first compound 2.53 µM
  relative viability: 0.692
[17]; first compound 8 µM
  relative viability: 0.555
[18]; first compound 0.253 µM
  relative viability: 1.07
[18]; first compound 0.8 µM
  relative viability: 1.03
[18]; first compound 2.53 µM
  relative viability: 1.23
[18]; first compound 8 µM
  relative viability: 0.969
[19]; first compound 0.253 µM
  relative viability: 1.16
[19]; first compound 0.8 µM
  relative viability: 1.14
[19]; first compound 2.53 µM
  relative viability: 1.32
[19]; first compound 8 µM
  relative viability: 0.932
[20]; first compound 0.253 µM
  relative viability: 0.929
[20]; first compound 2.53 µM
  relative viability: 1
[20]; first compound 8 µM
  relative viability: 0.727
[21]; first compound 0.253 µM
  relative viability: 0.969
[21]; first compound 0.8 µM
  relative viability: 0.923
[21]; first compound 2.53 µM
  relative viability: 1
[21]; first compound 8 µM
  relative viability: 1.09
[22]; first compound 0.253 µM
  relative viability: 0.905
[22]; first compound 0.8 µM
  relative viability: 0.79
[22]; first compound 2.53 µM
  relative viability: 0.892
[22]; first compound 8 µM
  relative viability: 0.943
